Experimental data: PubChem BioAssay AID202 (DTP/NCI, 2004)
Values joined by “and” are separate entries in the source; they are usually repeats but may differ in a detail not shown here. Equal entries are not always repeated.

Tested on: HT29 xenograft, nude mice, s.c., tumor weight T/C%
Test: NCI In Vivo Anticancer Drug Screen. Data for tumor model HT29;CX-1 Human Adenocarcinoma (MER+) (subcutaneous) in NU/NU Swiss (nude) mice
Conditions: endpoint: optimum tumor weight change, higher = larger tumour
Procedure: The antitumor activity of compounds was measured in mice bearing transplantable tumors. Survival or tumor size were measured and the results are expressed as the measurement made in the treated group (T) divided by the measurement made in the vehicle treated control group (C). The tumor model used in this assay is HT29;CX-1 Human Adenocarcinoma (MER+) (subcutaneous) in NU/NU Swiss (nude) mice

[1] = dose: 3.0 mg/kg/injection, schedule: Q04DX003 (ip), vehicle: suspension in saline
[2] = dose: 6.0 mg/kg/injection, schedule: Q04DX003 (ip), vehicle: suspension in saline
[3] = dose: 12.0 mg/kg/injection, schedule: Q04DX003 (ip), vehicle: suspension in saline
[4] = dose: 50.0 mg/kg/injection, schedule: Q04DX003 (ip), vehicle: saline
[5] = dose: 25.0 mg/kg/injection, schedule: Q04DX003 (ip), vehicle: Klucel (hydroxypropylcellulose) (HPC)
[6] = dose: 100.0 mg/kg/injection, schedule: Q04DX003 (ip), vehicle: suspension in saline
[7] = dose: 200.0 mg/kg/injection, schedule: Q04DX003 (ip), vehicle: suspension in saline
[8] = dose: 400.0 mg/kg/injection, schedule: Q04DX003 (ip), vehicle: suspension in saline
[9] = dose: 800.0 mg/kg/injection, schedule: Q04DX003 (ip), vehicle: suspension in saline
[10] = dose: 50.0 mg/kg/injection, schedule: Q04DX003 (ip), vehicle: Klucel (hydroxypropylcellulose) (HPC)
[11] = dose: 100.0 mg/kg/injection, schedule: Q04DX003 (ip), vehicle: saline
[12] = dose: 200.0 mg/kg/injection, schedule: Q04DX003 (ip), vehicle: saline

C[n+]1c(-c2cccc3ccccc23)c2cc(N)ccc2c2ccccc21
T/C (dose: 1.5 mg/kg/injection, schedule: Q04DX003 (ip), vehicle: saline): 86 % of control

C=C(C)[C@H]1Cc2c(ccc3c2O[C@@H]2COc4cc(OC)c(OC)cc4[C@@H]2C3=O)O1
T/C [1]: 90 % of control
T/C [2]: 77 % of control
T/C [3]: 91 % of control
T/C (dose: 12.5 mg/kg/injection, schedule: Q04DX003 (ip), vehicle: saline): 70 % of control
T/C (dose: 25.0 mg/kg/injection, schedule: Q04DX003 (ip), vehicle: saline): 102 % of control
T/C [4]: 50 % of control

N/C(=N\O)c1cn(C2OC(CO)C(O)C2O)c2ncnc(N)c12 (configuration not stated)
T/C (dose: 5.0 mg/kg/injection, schedule: Q04DX003 (ip), vehicle: Klucel (hydroxypropylcellulose) (HPC)): 91 % of control
T/C (dose: 10.0 mg/kg/injection, schedule: Q04DX003 (ip), vehicle: Klucel (hydroxypropylcellulose) (HPC)): 63 % of control
T/C (dose: 20.0 mg/kg/injection, schedule: Q04DX003 (ip), vehicle: Klucel (hydroxypropylcellulose) (HPC)): 47 % of control

CN(C)c1nc(N(C)C)nc(N(C)C)n1
T/C (dose: 60.0 mg/kg/injection, schedule: Q07DX005 (ip), vehicle: Klucel (hydroxypropylcellulose) (HPC)): 91 % of control and 114 % of control
T/C (dose: 120.0 mg/kg/injection, schedule: Q01DX005 (ip), vehicle: Klucel (hydroxypropylcellulose) (HPC)): 38 % of control and 47 % of control
T/C (dose: 120.0 mg/kg/injection, schedule: Q07DX005 (ip), vehicle: Klucel (hydroxypropylcellulose) (HPC)): 72 % of control and 78 % of control
T/C (dose: 240.0 mg/kg/injection, schedule: Q04DX005 (ip), vehicle: Klucel (hydroxypropylcellulose) (HPC)): 27 % of control and 38 % of control
T/C (dose: 240.0 mg/kg/injection, schedule: Q07DX005 (ip), vehicle: Klucel (hydroxypropylcellulose) (HPC)): 37 % of control

CC(C)CCCCCCCCCCCCC(=O)NCC(=O)NC1C(O)C(O)C(Nc2ncnc3nc[nH]c23)OC1C(O)CO (configuration not stated)
T/C [1]: 108 % of control and 110 % of control
T/C [2]: 67 % of control and 79 % of control
T/C [3]: 16 % of control and 40 % of control

C1CCC2[N-]CC3CCCCC3[N-]CC3CCCCC3[N-]CC3CCCCC3[N-]CC2C1.[Cu] (configuration not stated)
T/C (dose: 3.13 mg/kg/injection, schedule: Q04DX003 (ip), vehicle: Klucel (hydroxypropylcellulose) (HPC)): 62 % of control
T/C (dose: 6.25 mg/kg/injection, schedule: Q04DX003 (ip), vehicle: Klucel (hydroxypropylcellulose) (HPC)): 90 % of control
T/C (dose: 12.5 mg/kg/injection, schedule: Q04DX003 (ip), vehicle: Klucel (hydroxypropylcellulose) (HPC)): 70 % of control
T/C [5]: 94 % of control

CC(CN1CC(=O)NC(=O)C1)N1CC(=O)NC(=O)C1 (configuration not stated)
T/C (dose: 50.0 mg/kg/injection, schedule: Q04DX003 (ip), vehicle: suspension in saline): 73 % of control
T/C [6]: 50 % of control
T/C [7]: 57 % of control

COc1cccc2c1C(=O)c1c(O)c3c(c(O)c1C2=O)C[C@@](O)(C(C)=O)C[C@@H]3OC1CC(N)C(O)C(C)O1 (some centres not stated)
T/C (dose: 1.0 mg/kg/injection, schedule: Q04DX003 (ip), vehicle: saline): 71 % of control
T/C (dose: 2.0 mg/kg/injection, schedule: Q04DX003 (ip), vehicle: saline): 113 % of control

CC(C)=CCNc1ncnc2c1ncn2C1OC(CO)C(O)C1O (configuration not stated)
T/C [6]: 106 % of control
T/C [7]: 77 % of control
T/C [8]: 65 % of control
T/C [9]: 64 % of control

NC(=S)N/N=C/c1ccc(O)cn1
T/C (dose: 150.0 mg/kg/injection, schedule: Q04DX003 (ip), vehicle: saline with Tween-80): 63 % of control
T/C (dose: 300.0 mg/kg/injection, schedule: Q04DX003 (ip), vehicle: saline with Tween-80): 70 % of control
T/C (dose: 600.0 mg/kg/injection, schedule: Q04DX003 (ip), vehicle: saline with Tween-80): 87 % of control

O=[N+]([O-])/C=C\c1ccc2c(c1)OCO2
T/C [10]: 116 % of control

C=CC(=O)NCNC(=O)C=C
T/C [4]: 78 % of control
T/C [11]: 65 % of control
T/C [12]: 60 % of control

COc1cccc2c1C(=O)c1c(O)c3c(c(O)c1C2=O)C[C@@](O)(C(=O)CO)C[C@@H]3OC1CC(N)C(O)C(C)O1 (some centres not stated)
T/C (dose: 2.0 mg/kg/injection, schedule: Q04DX003 (ip), vehicle: water): 83 % of control

Nc1cc2[nH]cnc2c(=O)[nH]1
T/C [4]: 89 % of control
T/C [11]: 83 % of control
T/C [12]: 93 % of control

Cc1c(N)nc(C(CC(N)=O)NCC(N)C(N)=O)nc1C(=O)NC(C(=O)NC(C)C(O)C(C)C(=O)NC(C(=O)NCCc1nc(-c2nc(C(=O)NCCCNC(C)c3ccccc3)cs2)cs1)C(C)O)C(OC1OC(CO)C(O)C(O)C1OC1OC(CO)C(O)C(OC(N)=O)C1O)c1cnc[nH]1 (configuration not stated)
T/C (dose: 3.75 mg/kg/injection, schedule: Q04DX003 (ip), vehicle: saline): 70 % of control

O=C(NC1CCCCC1)OCc1c(COC(=O)NC2CCCCC2)c(-c2ccc(Cl)c(Cl)c2)n2c1CCC2
T/C [6]: 96 % of control
T/C [7]: 90 % of control
T/C [8]: 92 % of control
T/C [9]: 65 % of control

CCCCNCCCNCCCNC(=O)c1csc(-c2csc(CCNC(=O)C(NC(=O)C(C)C(O)C(C)NC(=O)C(NC(=O)c3nc(C(CC(N)=O)NCC(N)C(N)=O)nc(N)c3C)C(OC3OC(CO)C(O)C(O)C3OC3OC(CO)C(O)C(OC(N)=O)C3O)c3cnc[nH]3)C(C)O)n2)n1 (configuration not stated)
T/C (dose: 7.5 mg/kg/injection, schedule: Q04DX003 (ip), vehicle: saline): 75 % of control
T/C (dose: 15.0 mg/kg/injection, schedule: Q04DX003 (ip), vehicle: saline): 28 % of control
T/C (dose: 15.0 mg/kg/injection, schedule: Q04DX004 (ip), vehicle: saline): 40 % of control
T/C (dose: 30.0 mg/kg/injection, schedule: Q04DX003 (ip), vehicle: saline): 19 % of control and 33 % of control
T/C (dose: 30.0 mg/kg/injection, schedule: Q04DX004 (ip), vehicle: saline): 38 % of control
T/C (dose: 60.0 mg/kg/injection, schedule: Q04DX003 (ip), vehicle: saline): 20 % of control
T/C (dose: 60.0 mg/kg/injection, schedule: Q04DX004 (ip), vehicle: saline): 18 % of control
T/C (dose: 120.0 mg/kg/injection, schedule: Q04DX003 (ip), vehicle: saline): 2 % of control

CC(C)CCCCCCCCCCCCC(=O)NCC(=O)NC1C(C)OC(Nc2ncnc3nc[nH]c23)C(O)C1O (configuration not stated)
T/C (dose: 3.13 mg/kg/injection, schedule: Q04DX003 (ip), vehicle: distilled water + Tween-80): 88 % of control
T/C (dose: 3.13 mg/kg/injection, schedule: Q04DX003 (ip), vehicle: saline with Tween-80): 58 % of control
T/C (dose: 6.25 mg/kg/injection, schedule: Q04DX003 (ip), vehicle: distilled water + Tween-80): 56 % of control and 66 % of control
T/C (dose: 6.25 mg/kg/injection, schedule: Q04DX003 (ip), vehicle: saline with Tween-80): 52 % of control
T/C (dose: 12.5 mg/kg/injection, schedule: Q04DX003 (ip), vehicle: distilled water + Tween-80): 55 % of control
T/C (dose: 12.5 mg/kg/injection, schedule: Q04DX003 (ip), vehicle: saline with Tween-80): 40 % of control
T/C (dose: 25.0 mg/kg/injection, schedule: Q04DX003 (ip), vehicle: distilled water + Tween-80): 73 % of control

O=C[C@@H](CO)O[C@H](C=O)n1cnc2c(=O)[nH]cnc21
T/C [11]: 57 % of control
T/C [12]: 85 % of control
T/C (dose: 400.0 mg/kg/injection, schedule: Q04DX003 (ip), vehicle: saline): 48 % of control

Nc1ccc(Cl)cc1N
T/C (dose: 400.0 mg/kg/injection, schedule: Q04DX003 (ip), vehicle: saline with Tween-80): 87 % of control
T/C (dose: 800.0 mg/kg/injection, schedule: Q04DX003 (ip), vehicle: saline with Tween-80): 98 % of control

N=c1ccn2c(n1)OC1C(O)C(CO)OC12 (configuration not stated)
T/C [4]: 70 % of control
T/C [11]: 49 % of control
T/C [12]: 71 % of control and 77 % of control
T/C (dose: 800.0 mg/kg/injection, schedule: Q04DX003 (ip), vehicle: saline): 40 % of control

CN1N=C(N)c2cn(C3OC(COP(=O)(O)O)C(O)C3O)c3ncnc1c23 (configuration not stated)
T/C (dose: 50.0 mg/kg/injection, schedule: Q04DX003 (ip), vehicle: water): 121 % of control

CC(=O)OCC(=O)[C@@]12OC(C)(C)O[C@@H]1C[C@H]1[C@@H]3CC(C=O)=C4C=C(OCCCl)CC[C@]4(C)[C@@]3(F)[C@@H](O)C[C@@]12C
T/C [5]: 52 % of control and 59 % of control

CN(C)N=Nc1ccccc1
T/C [5]: 64 % of control
T/C [10]: 83 % of control

COC(OC(CO)C(O)S(=O)(=O)O)C(O)S(=O)(=O)O (configuration not stated)
T/C [7]: 54 % of control
T/C [8]: 80 % of control
